Data published in patent publication US10640506B2, “Cyclobutyl substituted pyrrolopyridine and pyrrolopyrimidines derivatives as JAK inhibitors” (Incyte Corporation, priority 2010, dated 2020).
Counter-ions that a name gives are not always drawn. Like-named read-outs stand apart in the source and are kept apart here.

Key:
JAK2 (a.a. 828-1132) = target: T1, JAK2 (a.a. 828-1132) (Homo sapiens, UniProt O60674); test: In vitro JAK kinase assay (HTRF, phosphorylation of biotinylated peptide), JAK2; type: biochemical; settings: 1 mM ATP
T1 construct: JAK2 (a.a. 828-1132); His tag (N)
T1 sequence (O60674 828-1132): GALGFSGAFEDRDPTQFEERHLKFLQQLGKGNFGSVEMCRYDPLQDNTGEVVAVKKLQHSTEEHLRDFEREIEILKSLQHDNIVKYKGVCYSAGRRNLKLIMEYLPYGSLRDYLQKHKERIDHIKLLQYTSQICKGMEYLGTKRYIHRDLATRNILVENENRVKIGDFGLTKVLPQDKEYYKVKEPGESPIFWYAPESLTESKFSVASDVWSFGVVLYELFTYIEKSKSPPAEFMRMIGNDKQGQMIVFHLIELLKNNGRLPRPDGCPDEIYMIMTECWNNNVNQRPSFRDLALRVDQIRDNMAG
Protocol: Compounds herein were tested for inhibitory activity of JAK targets according to the following in vitro assay described in Park et al., Analytical Biochemistry 1999, 269, 94-104. The catalytic domains of human JAK1 (a.a. 837-1142) and JAK2 (a.a. 828-1132) with an N-terminal His tag were expressed using baculovirus in insect cells and purified. The catalytic activity of JAK1 and JAK2 was assayed by measuring the phosphorylation of a biotinylated peptide. The phosphorylated peptide was detected by homogenous time resolved fluorescence (HTRF). […] Reactions were carried out at room temperature for 1 hour and then stopped with 20 μL 45 mM EDTA, 300 nM SA-APC, 6 nM Eu-Py20 in assay buffer (Perkin Elmer, Boston, Mass.). Binding to the Europium labeled antibody took place for 40 minutes and HTRF signal was measured on a Fusion plate reader (Perkin Elmer, Boston, Mass.). See Tables A-F for data related to compounds of the Examples (at 1 mM). Data is indicated as ranges, wherein “+” is less than 10 nM; “++” is 10 nM to 25 nM; “+++” is greater than 25 nM to 100 nM; and “++++” is greater than 100 nM. Greater than 25 nM to 100 nM specifies a range with a lower endpoint “at greater than 25 nM” and an upper endpoint at 100 nM.

[1] = target: human JAK1 (a.a. 837-1142) (Homo sapiens, UniProt P23458); test: In vitro JAK kinase assay (HTRF, phosphorylation of biotinylated peptide), JAK1; type: biochemical; settings: 1 mM ATP
Sequence of human JAK1 (a.a. 837-1142) (P23458 849-1154): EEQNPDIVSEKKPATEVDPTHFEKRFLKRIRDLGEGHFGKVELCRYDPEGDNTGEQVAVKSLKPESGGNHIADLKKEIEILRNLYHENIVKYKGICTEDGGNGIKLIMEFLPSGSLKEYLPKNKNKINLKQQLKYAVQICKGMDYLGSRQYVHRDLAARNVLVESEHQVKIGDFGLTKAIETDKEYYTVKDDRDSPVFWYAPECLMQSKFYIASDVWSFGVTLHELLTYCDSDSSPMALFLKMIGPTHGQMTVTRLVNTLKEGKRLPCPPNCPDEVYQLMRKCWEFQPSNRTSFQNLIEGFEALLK
Protocol: Compounds herein were tested for inhibitory activity of JAK targets according to the following in vitro assay described in Park et al., Analytical Biochemistry 1999, 269, 94-104. The catalytic domains of human JAK1 (a.a. 837-1142) and JAK2 (a.a. 828-1132) with an N-terminal His tag were expressed using baculovirus in insect cells and purified. The catalytic activity of JAK1 and JAK2 was assayed by measuring the phosphorylation of a biotinylated peptide. The phosphorylated peptide was detected by homogenous time resolved fluorescence (HTRF). […] Reactions were carried out at room temperature for 1 hour and then stopped with 20 μL 45 mM EDTA, 300 nM SA-APC, 6 nM Eu-Py20 in assay buffer (Perkin Elmer, Boston, Mass.). Binding to the Europium labeled antibody took place for 40 minutes and HTRF signal was measured on a Fusion plate reader (Perkin Elmer, Boston, Mass.). […] Data is indicated as ranges, wherein “+” is less than 10 nM; “++” is 10 nM to 25 nM; “+++” is greater than 25 nM to 100 nM; and “++++” is greater than 100 nM. Greater than 25 nM to 100 nM specifies a range with a lower endpoint “at greater than 25 nM” and an upper endpoint at 100 nM.

SMILES | IC50 (JAK2 (a.a. 828-1132); Table F) [nM] | IC50 ([1]; Table F) [nM] | further results
CN(C)Cc1cc(OC2CCN([C@H]3C[C@](CC#N)(n4cc(-c5ncnc6[nH]ccc56)cn4)C3)CC2)cc(C(F)(F)F)c1 [Example 138, {trans-3-{4-[3-[(Dimethylamino)methyl]-5-(trifluoromethyl)phenoxy]piperidin-1-yl}-1-[4-(7H-pyrrolo[2,3-d]pyrimidin-4-yl)-1H-pyrazol-1-yl]cyclobutyl}acetonitrile] | > 100 | 10 to 25 | 
N#CC[C@]1(n2cc(-c3ncnc4[nH]ccc34)cn2)C[C@H](N2CCN(C(=O)N3CCCCC3)CC2)C1 [Example 25, {trans-3-[4-(piperidin-1-ylcarbonyl)piperazin-1-yl]-1-[4-(7H-pyrrolo[2,3-d]pyrimidin-4-yl)-1H-pyrazol-1-yl]cyclobutyl}acetonitrile] |  |  | IC50 (JAK2 (a.a. 828-1132); Table B, read-out: JAK2 IC50): > 100 nM; IC50 ([1]; Table B, read-out: JAK1 IC50): 25 to 100 nM
N#CC[C@]1(n2cc(-c3ncnc4[nH]ccc34)cn2)C[C@@H](N2CCN(C(=O)c3cc(F)cnc3Cl)CC2)C1 [Example 9a, {cis-3-{4-[(2-chloro-5-fluoropyridin-3-yl)carbonyl]piperazin-1-yl}-1-[4-(7H-pyrrolo[2,3-d]pyrimidin-4-yl)-1H-pyrazol-1-yl]cyclobutyl}acetonitrile] |  |  | IC50 (JAK2 (a.a. 828-1132); Table A, read-out: JAK2 IC50): > 100 nM; IC50 ([1]; Table A, read-out: JAK1 IC50): 10 to 25 nM
N#CC[C@]1(n2cc(-c3ncnc4[nH]ccc34)cn2)C[C@H](N2CCN(C(=O)c3cc(CN)nc(C(F)(F)F)n3)CC2)C1 [Example 54, {trans-3-(4-{[6-(aminomethyl)-2-(trifluoromethyl)pyrimidin-4-yl]carbonyl}piperazin-1-yl)-1-[4-(7H-pyrrolo[2,3-d]pyrimidin-4-yl)-1H-pyrazol-1-yl]cyclobutyl}acetonitrile] | 25 to 100 | < 10 | 
CN(C)Cc1cc(F)cc(CN2CCN([C@H]3C[C@](CC#N)(n4cc(-c5ncnc6[nH]ccc56)cn4)C3)CC2)c1 [Example 34, {trans-3-(4-{3-[(dimethylamino)methyl]-5-fluorobenzyl}piperazin-1-yl)-1-[4-(7H-pyrrolo[2,3-d]pyrimidin-4-yl)-1H-pyrazol-1-yl]cyclobutyl}acetonitrile] |  |  | IC50 (JAK2 (a.a. 828-1132); Table B, read-out: JAK2 IC50): 10 to 25 nM; IC50 ([1]; Table B, read-out: JAK1 IC50): < 10 nM
CN(C)Cc1cc(C(=O)N2CCN([C@H]3C[C@](CC#N)(n4cc(-c5ncnc6[nH]ccc56)cn4)C3)CC2)cc(C(F)(F)F)c1 [Example 39, {trans-3-{4-[3-[(dimethylamino)methyl]-5-(trifluoromethyl)benzoyl]piperazin-1-yl}-1-[4-(7H-pyrrolo[2,3-d]pyrimidin-4-yl)-1H-pyrazol-1-yl]cyclobutyl}acetonitrile] |  |  | IC50 (JAK2 (a.a. 828-1132); Table B, read-out: JAK2 IC50): 25 to 100 nM; IC50 ([1]; Table B, read-out: JAK1 IC50): < 10 nM
CC(C)NCc1cc(C(=O)N2CCN([C@H]3C[C@](CC#N)(n4cc(-c5ncnc6[nH]ccc56)cn4)C3)CC2)nc(C(F)(F)F)n1 [Example 55, {trans-3-(4-{[6-[(isopropylamino)methyl]-2-(trifluoromethyl)pyrimidin-4-yl]carbonyl}piperazin-1-yl)-1-[4-(7H-pyrrolo[2,3-d]pyrimidin-4-yl)-1H-pyrazol-1-yl]cyclobutyl}acetonitrile] | 25 to 100 | < 10 | 
N#CC[C@]1(n2cc(-c3ncnc4[nH]ccc34)cn2)C[C@H](N2CCC(Oc3cc(CN4CCC4)cc(C(F)(F)F)n3)CC2)C1 [Example 156, {trans-3-(4-{[4-(azetidin-1-ylmethyl)-6-(trifluoromethyl)pyridin-2-yl]oxy}piperidin-1-yl)-1-[4-(7H-pyrrolo[2,3-d]pyrimidin-4-yl)-1H-pyrazol-1-yl]cyclobutyl}acetonitrile] | 25 to 100 | < 10 | 
CNCc1cc(C(=O)N2CCN([C@H]3C[C@](CC#N)(n4cc(-c5ncnc6[nH]ccc56)cn4)C3)CC2)nc(C(F)(F)F)c1 [Example 68, {trans-3-(4-{[4-[(methylamino)methyl]-6-(trifluoromethyl)pyridin-2-yl]carbonyl}piperazin-1-yl)-1-[4-(7H-pyrrolo[2,3-d]pyrimidin-4-yl)-1H-pyrazol-1-yl]cyclobutyl}acetonitrile] | 10 to 25 | < 10 | 
N#CC[C@]1(n2cc(-c3ncnc4[nH]ccc34)cn2)C[C@@H](N2CCN(C(=O)c3cccc(C(F)F)n3)CC2)C1 [Example 21a, {cis-3-(4-{[6-(difluoromethyl)pyridin-2-yl]carbonyl}piperazin-1-yl)-1-[4-(7H-pyrrolo[2,3-d]pyrimidin-4-yl)-1H-pyrazol-1-yl]cyclobutyl}acetonitrile] |  |  | IC50 (JAK2 (a.a. 828-1132); Table A, read-out: JAK2 IC50): 25 to 100 nM; IC50 ([1]; Table A, read-out: JAK1 IC50): < 10 nM
N#CC[C@]1(n2cc(-c3ncnc4[nH]ccc34)cn2)C[C@@H](N2CCN(C(=O)c3ccc(Cl)cc3)CC2)C1 [Example 28, {cis-3-{4-[4-chlorobenzoyl]piperazin-1-yl}-1-[4-(7H-pyrrolo[2,3-d]pyrimidin-4-yl)-1H-pyrazol-1-yl]cyclobutyl}acetonitrile] |  |  | IC50 (JAK2 (a.a. 828-1132); Table A, read-out: JAK2 IC50): 10 to 25 nM; IC50 ([1]; Table A, read-out: JAK1 IC50): < 10 nM
CN(C)S(=O)(=O)N1CCN([C@H]2C[C@](CC#N)(n3cc(-c4ncnc5[nH]ccc45)cn3)C2)CC1 [Example 37, 4-{trans-3-(cyanomethyl)-3-[4-(7H-pyrrolo[2,3-d]pyrimidin-4-yl)-1H-pyrazol-1-yl]cyclobutyl}-N,N-dimethylpiperazine-1-sulfonamide] |  |  | IC50 (JAK2 (a.a. 828-1132); Table B, read-out: JAK2 IC50): < 10 nM; IC50 ([1]; Table B, read-out: JAK1 IC50): < 10 nM
CCN(C)C(=O)N1CCN([C@H]2C[C@](CC#N)(n3cc(-c4ncnc5[nH]ccc45)cn3)C2)CC1 [Example 38, 4-{trans-3-(cyanomethyl)-3-[4-(7H-pyrrolo[2,3-d]pyrimidin-4-yl)-1H-pyrazol-1-yl]cyclobutyl}-N-ethyl-N-methylpiperazine-1-carboxamide] |  |  | IC50 (JAK2 (a.a. 828-1132); Table B, read-out: JAK2 IC50): 25 to 100 nM; IC50 ([1]; Table B, read-out: JAK1 IC50): < 10 nM
N#CC[C@]1(n2cc(-c3ncnc4[nH]ccc34)cn2)C[C@H](N2CCC(Oc3cc(CN4CCC(F)(F)C4)cc(C(F)(F)F)n3)CC2)C1 [Example 160, {trans-3-(4-{[4-[(3,3-difluoropyrrolidin-1-yl)methyl]-6-(trifluoromethyl)pyridin-2-yl]oxy}piperidin-1-yl)-1-[4-(7H-pyrrolo[2,3-d]pyrimidin-4-yl)-1H-pyrazol-1-yl]cyclobutyl}acetonitrile] | > 100 | 10 to 25 | 
N#CC[C@]1(n2cc(-c3ncnc4[nH]ccc34)cn2)C[C@H](N2CCC(Oc3cc(CN4CC(O)C4)nc(C(F)(F)F)n3)CC2)C1 [Example 144, {trans-3-(4-{[6-[(3-hydroxyazetidin-1-yl)methyl]-2-(trifluoromethyl)pyrimidin-4-yl]oxy}piperidin-1-yl)-1-[4-(7H-pyrrolo[2,3-d]pyrimidin-4-yl)-1H-pyrazol-1-yl]cyclobutyl}acetonitrile] | > 100 | 10 to 25 | 
COCc1cc(C(=O)N2CCN([C@H]3C[C@](CC#N)(n4cc(-c5ncnc6[nH]ccc56)cn4)C3)CC2)nc(C(F)(F)F)n1 [Example 60, {trans-3-(4-{[6-(methoxymethyl)-2-(trifluoromethyl)pyrimidin-4-yl]carbonyl}piperazin-1-yl)-1-[4-(7H-pyrrolo[2,3-d]pyrimidin-4-yl)-1H-pyrazol-1-yl]cyclobutyl}acetonitrile] | 25 to 100 | < 10 | 
N#CC[C@]1(n2cc(-c3ncnc4[nH]ccc34)cn2)C[C@@H](N2CCN(C(=O)c3ccc(C(F)(F)F)cc3F)CC2)C1 [Example 29, {cis-3-{4-[2-fluoro-4-(trifluoromethyl)benzoyl]piperazin-1-yl}-1-[4-(7H-pyrrolo[2,3-d]pyrimidin-4-yl)-1H-pyrazol-1-yl]cyclobutyl}acetonitrile 2.3×(trifluoroacetate) Salt] |  |  | IC50 (JAK2 (a.a. 828-1132); Table A, read-out: JAK2 IC50): 25 to 100 nM; IC50 ([1]; Table A, read-out: JAK1 IC50): 10 to 25 nM

More lines, main results first:

IC50 (JAK2 (a.a. 828-1132); Table F) [nM] | IC50 ([1]; Table F) [nM] | SMILES | further results
25 to 100 | 10 to 25 | CN(C)/C(=N\C#N)N1CCN([C@H]2C[C@](CC#N)(n3cc(-c4ncnc5[nH]ccc45)cn3)C2)CC1 [Example 118, N′-cyano-4-{trans-3-(cyanomethyl)-3-[4-(7H-pyrrolo[2,3-d]pyrimidin-4-yl)-1H-pyrazol-1-yl]cyclobutyl}-N,N-dimethylpiperazine-1-carboximidamide] | 
25 to 100 | < 10 | N#CC[C@]1(n2cc(-c3ncnc4[nH]ccc34)cn2)C[C@H](N2CCN(C(=O)NC3CCC3)CC2)C1 [Example 99, 4-{trans-3-(cyanomethyl)-3-[4-(7H-pyrrolo[2,3-d]pyrimidin-4-yl)-1H-pyrazol-1-yl]cyclobutyl}-N-cyclobutylpiperazine-1-carboxamide] | 
